According to US4681970A, “Bicyclo-substituted phenylacetonitrile derivatives” (G. D. Searle & Co., priority 1986, dated 1987):
Structures can show the parent of a compound that is named as a salt.

Assays:
[1] = tested on: spontaneously hypertensive rats (SHR); conditions: clinically useful reference agents; cited from earlier work
[2] = compared with verapamil hydrochloride; cited from earlier work
[3] = target: T1, Isolated thoracic aortic rings from the male SHR (Rattus norvegicus, UniProt P22002); test: Calcium antagonism in vascular smooth muscle (isolated thoracic aortic rings from male SHR); format: cell-based; conditions: read-out: pA2 Ca^++ Antagonism (converted)
T1 sequence (P22002 whole entry): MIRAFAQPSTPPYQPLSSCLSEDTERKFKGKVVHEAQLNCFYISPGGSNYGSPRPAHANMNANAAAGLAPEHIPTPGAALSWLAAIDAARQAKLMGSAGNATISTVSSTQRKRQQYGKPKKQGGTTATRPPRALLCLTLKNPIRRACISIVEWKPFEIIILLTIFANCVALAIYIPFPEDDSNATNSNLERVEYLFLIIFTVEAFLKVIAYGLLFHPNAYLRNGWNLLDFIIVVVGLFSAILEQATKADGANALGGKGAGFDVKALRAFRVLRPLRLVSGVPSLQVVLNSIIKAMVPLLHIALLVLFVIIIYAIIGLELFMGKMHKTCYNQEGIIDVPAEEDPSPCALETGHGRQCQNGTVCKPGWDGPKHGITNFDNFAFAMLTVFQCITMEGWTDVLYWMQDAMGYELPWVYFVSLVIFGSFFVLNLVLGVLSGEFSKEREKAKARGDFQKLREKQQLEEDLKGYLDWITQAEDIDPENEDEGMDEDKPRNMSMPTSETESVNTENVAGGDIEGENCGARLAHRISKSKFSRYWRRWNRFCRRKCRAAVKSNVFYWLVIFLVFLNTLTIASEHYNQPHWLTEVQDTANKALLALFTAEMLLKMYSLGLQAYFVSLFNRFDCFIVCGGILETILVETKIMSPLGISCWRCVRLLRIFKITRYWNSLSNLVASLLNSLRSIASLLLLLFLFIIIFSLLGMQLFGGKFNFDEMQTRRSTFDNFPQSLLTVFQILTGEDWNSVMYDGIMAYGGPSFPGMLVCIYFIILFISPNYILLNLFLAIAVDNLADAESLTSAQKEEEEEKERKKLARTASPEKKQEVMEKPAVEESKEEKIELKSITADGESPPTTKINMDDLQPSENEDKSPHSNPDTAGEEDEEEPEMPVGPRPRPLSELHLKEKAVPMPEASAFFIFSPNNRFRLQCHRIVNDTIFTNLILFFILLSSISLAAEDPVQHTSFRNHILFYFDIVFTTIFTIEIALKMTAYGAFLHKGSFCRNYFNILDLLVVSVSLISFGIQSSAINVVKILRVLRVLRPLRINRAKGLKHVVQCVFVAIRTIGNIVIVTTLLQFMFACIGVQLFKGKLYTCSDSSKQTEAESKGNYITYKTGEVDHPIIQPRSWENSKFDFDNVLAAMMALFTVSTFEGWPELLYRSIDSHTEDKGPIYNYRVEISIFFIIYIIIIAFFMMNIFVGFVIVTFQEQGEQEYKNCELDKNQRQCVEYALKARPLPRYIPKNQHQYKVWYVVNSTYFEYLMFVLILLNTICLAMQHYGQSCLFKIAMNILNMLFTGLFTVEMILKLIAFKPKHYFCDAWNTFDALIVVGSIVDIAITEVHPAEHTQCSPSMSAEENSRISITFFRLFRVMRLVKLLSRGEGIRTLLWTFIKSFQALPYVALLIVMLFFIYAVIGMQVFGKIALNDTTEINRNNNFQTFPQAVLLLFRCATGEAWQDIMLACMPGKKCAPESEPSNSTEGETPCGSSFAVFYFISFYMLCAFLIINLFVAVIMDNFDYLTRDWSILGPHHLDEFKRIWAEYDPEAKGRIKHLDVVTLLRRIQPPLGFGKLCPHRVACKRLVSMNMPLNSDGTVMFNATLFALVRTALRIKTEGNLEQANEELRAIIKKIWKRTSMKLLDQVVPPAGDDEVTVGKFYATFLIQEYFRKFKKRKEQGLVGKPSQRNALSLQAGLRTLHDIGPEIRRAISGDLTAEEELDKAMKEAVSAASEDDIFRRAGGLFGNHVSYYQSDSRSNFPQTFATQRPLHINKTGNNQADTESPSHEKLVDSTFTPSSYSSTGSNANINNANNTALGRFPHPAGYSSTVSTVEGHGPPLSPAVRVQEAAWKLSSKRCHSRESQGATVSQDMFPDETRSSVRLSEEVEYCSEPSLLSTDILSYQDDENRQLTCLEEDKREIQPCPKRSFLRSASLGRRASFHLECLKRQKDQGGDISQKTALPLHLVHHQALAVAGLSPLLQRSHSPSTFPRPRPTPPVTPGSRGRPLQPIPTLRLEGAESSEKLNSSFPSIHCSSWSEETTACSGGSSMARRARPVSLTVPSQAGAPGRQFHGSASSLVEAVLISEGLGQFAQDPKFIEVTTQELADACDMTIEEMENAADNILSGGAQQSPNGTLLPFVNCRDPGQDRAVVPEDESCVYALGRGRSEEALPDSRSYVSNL
T1 sequence (P54290 25-944 partner limits assumed): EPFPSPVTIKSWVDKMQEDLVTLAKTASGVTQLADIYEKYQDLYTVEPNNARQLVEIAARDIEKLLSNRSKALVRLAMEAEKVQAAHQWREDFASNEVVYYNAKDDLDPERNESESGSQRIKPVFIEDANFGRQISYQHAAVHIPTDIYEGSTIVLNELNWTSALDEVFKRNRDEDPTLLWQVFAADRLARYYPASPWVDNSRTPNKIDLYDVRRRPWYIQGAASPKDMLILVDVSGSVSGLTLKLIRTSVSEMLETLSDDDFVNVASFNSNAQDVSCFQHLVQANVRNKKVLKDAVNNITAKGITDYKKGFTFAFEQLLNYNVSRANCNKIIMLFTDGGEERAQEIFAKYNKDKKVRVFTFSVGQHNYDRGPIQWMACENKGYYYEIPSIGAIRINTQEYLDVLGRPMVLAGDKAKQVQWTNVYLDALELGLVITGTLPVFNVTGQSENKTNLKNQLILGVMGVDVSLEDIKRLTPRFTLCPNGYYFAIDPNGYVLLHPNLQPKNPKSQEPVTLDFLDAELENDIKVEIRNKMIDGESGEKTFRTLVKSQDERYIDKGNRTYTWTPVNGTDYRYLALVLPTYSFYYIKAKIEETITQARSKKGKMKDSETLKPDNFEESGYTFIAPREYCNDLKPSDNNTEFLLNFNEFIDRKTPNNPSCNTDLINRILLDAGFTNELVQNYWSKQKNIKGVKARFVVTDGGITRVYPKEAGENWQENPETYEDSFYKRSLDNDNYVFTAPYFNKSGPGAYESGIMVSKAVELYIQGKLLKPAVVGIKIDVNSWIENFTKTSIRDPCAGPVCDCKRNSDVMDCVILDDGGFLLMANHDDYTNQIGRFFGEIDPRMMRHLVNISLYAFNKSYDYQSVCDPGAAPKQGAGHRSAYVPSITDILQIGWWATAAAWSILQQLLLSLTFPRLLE
T1 sequence (P54290 945-1091 partner limits assumed): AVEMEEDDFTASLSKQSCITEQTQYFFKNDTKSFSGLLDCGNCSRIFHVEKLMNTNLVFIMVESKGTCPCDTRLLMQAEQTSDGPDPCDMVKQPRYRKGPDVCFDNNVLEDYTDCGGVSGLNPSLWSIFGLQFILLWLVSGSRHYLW
Procedure: Isolated thoracic aortic rings from the male SHR were utilized in this test procedure.
The excised aortic ring was mounted in a tissue bath containing modified Kreb's solution. After depolarization of the tissue with potassium chloride (100 mM), calcium in cumulative concentrations of 1×10^-3 M, 3.2×10^-3 M, and 1×10^-2 M was injected into the bath to produce vascular smooth muscle contraction. The developed tension (in grams) was measured and control dose-response values obtained. After one hour of incubation with a test compound at 1×10^-6 M concentration, the same doses of calcium ions were repeated. The log dose-response curves of the control and after treatment were analyzed by linear regression. The pA2 value was calculated as a measure of calcium antagonism of the test compound. See Van Rossum, J. M., Arch. Int. Pharmacodyn, 143, 299-330, 1963.
Calcium ions play an essential role in induction and maintenance of vascular smooth muscle contractility. In potassium depolarized vascular smooth muscle, calcium antagonists may block the entry of calcium ions into the cell or act by other mechanisms to inhibit the contractions induced by calcium ions. The inhibition of calcium ion--induced contraction of vascular smooth muscle is used to test compounds for vascular calcium antagonism. Cardiovascular diseases such as arrhythmias, angina-pectoris, hypertension, and peripheral vascular disease may be causally related to abnormalities in cellular handling of calcium ions.

[4] = tested on: atrial-ventricular conduction; conditions: compared with verapamil or diltiazem
[5] = tested on: spontaneously hypertensive rats (SHR); test: Antihypertensive activity in unanesthetized spontaneously hypertensive rats (SHR); format: in vivo, rat; conditions: for duration of antihypertensive effect: oral
Procedure: The test procedures employed to measure these activities are described below.
Male, unanesthetized spontaneously hypertensive rats (SHR), 11 to 16 weeks old were used in this test procedure. […]
Initial mean arterial blood pressure was measured directly via a previously implanted arterial catheter immediately before administration of the test compound. Blood pressure readings were made at hourly intervals, 24 hours per day, for 3 days following oral administration of the test compound and at 5, 10, and 15 minutes following intravenous administration. […] Statistical comparisons were made using the analysis of variance test with two sided probability calculations.

anesthetized beagle dogs = test: Antihypertensive effect in anesthetized beagle dogs, i.v.; format: in vivo, beagle dog; conditions: for maximum hypotensive effect: compounds of the invention, verapamil and diltiazem compared
[6] = target: T1, Isolated thoracic aortic rings from the male SHR; conditions: reference drugs, potassium depolarized vascular smooth muscle; cited from earlier work
[7] = ratio of the dose required to slow or block atrial-ventricular conduction to the dose required to lower arterial pressure by 20 mmHg
[8] = ratio of the dose to decrease heart rate to the dose to lower arterial pressure
[9] = SHR, 10 mg/kg/day for three days
[10] = conscious SHR, 50 mg/kg/day for three days

C[C@](N)(Cc1ccc(O)c(O)c1)C(=O)O [Aldomet]
active in the hypertensive rat assay [1]: active

CCCCCCCCCCCCC(C#N)(CCCN(C)CCc1cccc(OC)c1)c1cccc(OC)c1 (stereo not drawn) [Anipamil, 2-(3-methoxyphenyl)-2[3-[N-[2-(3-methoxyphenyl)ethyl]methylamino]propyl]tetradecanenitrile]
calcium ion antagonist activity [2]: calcium ion antagonist activity analogous to verapamil hydrochloride

NNc1nncc2ccccc12 [Apresoline]
active in the hypertensive rat assay [1]: active

C[C@H](CS)C(=O)N1CCC[C@H]1C(=O)O [Captopril]
active in the hypertensive rat assay [1]: active

Clc1cccc(Cl)c1N=C1NCCN1 [Clonidine]
active in the hypertensive rat assay [1]: active

COc1ccc(C(C#N)(CCCN(C)C2CCc3ccccc3C2)C(C)C)cc1OC.O=C(O)CC(O)(CC(=O)O)C(=O)O (stereo not drawn) [Example 8, 3,4-dimethoxy-α-(1-methylethyl)-α-[3-[N-methyl-N-(1,2,3,4-tetrahydro-2-naphthalenyl)amino]propyl]phenylacetonitrile, citrate (1:1)]
Kb [3]: 0.0501 µM
therapeutic ratio for atrial-ventricular block and bradycardia [4]: more favorable therapeutic ratio for atrial-ventricular block and bradycardia than verapamil or diltiazem
selectivity ratio (in vivo; [7]): 4
selectivity ratio (in vivo; [8]): 3.1
duration of antihypertensive effect [5, 9]: approximately 12 hours
duration of antihypertensive effect [5, 10]: > 24 h
SHR -mmHg intravenous (mg/kg) ([5]; 0.1 mg/kg): -30 mmHg
slope of the dose-blood pressure response curve (anesthetized beagle dogs; compared to verapamil and diltiazem): not as steep

COc1ccc(C(C#N)(CCCN(C)C2CCc3cc(OC)c(OC)cc3C2)C(C)C)cc1OC.O=C(O)CC(O)(CC(=O)O)C(=O)O (stereo not drawn) [Example 9, 3,4-dimethoxy-α-(1-methylethyl)-α-[3-[N-methyl-N-(1,2,3,4-tetrahydro-6,7-dimethoxy-2-naphthalenyl)amino]propyl]phenylacetonitrile, citrate (1:1)]
Kb [3]: 0.126 µM
SHR -mmHg intravenous (mg/kg) ([5]; 3.0 mg/kg): -30 mmHg

COc1ccc2c(c1)CCC(N(C)CCCC(C#N)(c1ccc(OC)c(OC)c1)C(C)C)C2.O=C(O)CC(O)(CC(=O)O)C(=O)O (stereo not drawn) [Example 10, 3,4-dimethoxy-α-(1-methylethyl)-α-[3-[N-methyl-N-(1,2,3,4-tetrahydro-6-methoxy-2-naphthalenyl)amino]propyl]phenylacetonitrile, citrate (1:1)]
Kb [3]: 0.0251 µM
SHR -mmHg intravenous (mg/kg) ([5]; 3.0 mg/kg): -24 mmHg

COc1ccc(C(C#N)(CCCN(C)C2CCc3c(cccc3OC)C2)C(C)C)cc1OC.O=C(O)CC(O)(CC(=O)O)C(=O)O (stereo not drawn) [Example 11, 3,4-dimethoxy-α-(1-methylethyl)-α-[3-[N-methyl-N-(1,2,3,4-tetrahydro-5-methoxy-2-naphthalenyl)amino]propyl]phenylacetonitrile, citrate (1:1)]
Kb [3]: 0.0501 µM
SHR -mmHg intravenous (mg/kg) ([5]; 1.0 mg/kg): -29 mmHg

COc1ccc2c(c1)CC(N(C)CCCC(C#N)(c1ccc(OC)c(OC)c1)C(C)C)CC2.O=C(O)CC(O)(CC(=O)O)C(=O)O (stereo not drawn) [Example 12, 3,4-dimethoxy-α-(1-methylethyl)-α-[3-[N-methyl-N-(1,2,3,4-tetrahydro-7-methoxy-2-naphthalenyl)amino]propyl]phenylacetonitrile, citrate (1:1)]
Kb [3]: 0.0398 µM
SHR -mmHg intravenous (mg/kg) ([5]; 1.0 mg/kg): -20 mmHg

COc1ccc([C@@H]2Sc3ccccc3N(CCN(C)C)C(=O)[C@@H]2OC(C)=O)cc1 [diltiazem, reference compound]
selectivity ratio (in vivo; [7]): 0.53
selectivity ratio (in vivo; [8]): 0.53
active in vascular calcium antagonism test [6]: active
maximum hypotensive effect (anesthetized beagle dogs): approximately the same maximum hypotensive effect

COC(=O)C1=C(C)NC(C)=C(C(=O)OC)C1c1ccccc1[N+](=O)[O-] [nifedipine]
active in vascular calcium antagonism test [6]: active

COc1ccc(CCN(C)CCCC(C#N)(c2ccc(OC)c(OC)c2)C(C)C)cc1OC (stereo not drawn) [verapamil, α[3-[[2-(3,4-dimethoxyphenyl)ethyl]methylamino]propyl]-3,4-dimethoxy-α-(1-methylethyl)hydrochloride, reference compound]
duration of antihypertensive effect [5, 9]: 6 h
duration of antihypertensive effect [5, 10]: 14 h
SHR -mmHg intravenous (mg/kg) ([5]; 0.3 mg/kg): -30 mmHg
maximum hypotensive effect (anesthetized beagle dogs): approximately the same maximum hypotensive effect
